The test system of one data set is BRIN-BD11 cells. Put plainly: Beta-cell proliferation (Ki-67 staining), with and without Y4 antagonist (S)-VU0637120. Type of data set: cell-based, rodent. The settings on record: 10^-8 and 10^-6 M, 18 h. The protocol: FIG. 1 illustrates the effects PP peptides on cell viability, insulin release, proliferation and apoptosis from rodent BRIN-BD11 cells. (A) Cells were incubated with test peptides (10^−8-10^−6 M) for 18 h prior to addition of MTT. (B, C) Cells were incubated (20 min) with (B) 16.7 mM glucose or (C) 16.7 mM glucose supplemented with alanine (10 mM), alone and together with test peptides (10^−12-10^−6 M) and insulin secretion assessed by RIA. (D, E) To assess effects on BRIN BD11 beta-cell proliferation and apoptosis and receptor selectivity, cells were incubated with test peptides (10^−8-10^−6 M) alone, or together with cytokine mix (IL-1β 100 Uml, IFN-γ 20 U/ml, TNF-α 200 U/ml), in the absence and presence of the Y4 antagonist, (S)-VU0637120, (10^−5 M), as specified, for 18 h prior to staining for (D) Ki-67 or (E) TUNEL. Values are mean±SEM (n=8). *p<0.05, **p<0.01 and ***p<0.001 compared with appropriate control culture, namely (A, D, E) media alone or (B, C) 16.7 mM glucose. ^Δp<0.05, ^ΔΔp<0.01, ^ΔΔΔp<0.001 compared to (C) 10 mM alanine or (E) cytokine mix. ^φp<0.05, ^φφp<0.01, ^φφφp<0.001 compared to effects in the absence of the NPYR4 antagonist (S)-VU0637120. […] Proliferation/TUNEL positive frequency was determined using the cell-counter function on ImageJ Software and expressed as % of total cells analysed, as described previously from our laboratory. […]

The target in the next data set is T1, purified porcine DPP-4 (Sus scrofa, UniProt P22411).
T1 construct: purchased Sigma-Aldrich
T1 sequence (P22411 whole entry): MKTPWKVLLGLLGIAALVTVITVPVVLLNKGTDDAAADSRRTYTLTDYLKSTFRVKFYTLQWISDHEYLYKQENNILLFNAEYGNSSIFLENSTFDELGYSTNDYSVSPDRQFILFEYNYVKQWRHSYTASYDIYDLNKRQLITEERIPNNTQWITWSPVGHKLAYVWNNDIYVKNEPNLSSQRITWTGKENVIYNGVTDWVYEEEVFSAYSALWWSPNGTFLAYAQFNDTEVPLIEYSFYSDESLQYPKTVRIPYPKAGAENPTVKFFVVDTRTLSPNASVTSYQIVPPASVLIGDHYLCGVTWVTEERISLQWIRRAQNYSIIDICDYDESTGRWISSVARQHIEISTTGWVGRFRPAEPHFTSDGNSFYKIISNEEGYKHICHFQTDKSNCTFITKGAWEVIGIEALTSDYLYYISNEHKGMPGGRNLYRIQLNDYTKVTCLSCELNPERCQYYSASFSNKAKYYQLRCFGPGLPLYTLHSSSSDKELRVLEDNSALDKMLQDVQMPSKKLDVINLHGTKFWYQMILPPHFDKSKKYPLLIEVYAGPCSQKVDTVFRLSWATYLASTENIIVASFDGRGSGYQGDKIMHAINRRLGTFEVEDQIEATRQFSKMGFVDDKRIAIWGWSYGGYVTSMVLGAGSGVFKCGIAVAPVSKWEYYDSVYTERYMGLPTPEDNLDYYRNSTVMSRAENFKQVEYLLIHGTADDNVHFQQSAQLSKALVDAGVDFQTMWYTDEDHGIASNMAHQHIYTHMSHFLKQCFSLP
Put plainly: In vitro DPP-4 stability (RP-HPLC and MALDI-ToF degradation profiles). The class given is in vitro ADME. Conditions: for DPP-4 stability: pH 7.4. The method, then:
To establish in vitro stability of PP and [P^3]PP, peptides (10 μg) were incubated with purified porcine DPP-4 (5 mU in 50 mmol/l triethanolamine/HCl, pH 7.4; Sigma-Aldrich) for 0-8 hours and degradation profiles examined using RP-HPLC and MALDI-ToF, employing the same systems as outlined above. Sequence of native PP and [P3]PP using one letter amino acid notation. The amino acid substitution in [P3]PP is denoted by bold underlined text. In vitro DPP-4 stability was assessed following incubation of test peptides with purified DPP-4 (5 mU) for 0-8 h.

Read-outs that look alike come from different tables or passages of the source. No end group written: not given here.

3 compounds from US20260097101A1, “Compositions for Use in the Treatment of Diabetes or Obesity” (Dia Beta Labs Ltd, priority 2022, published 2026) can be followed below.

As for “GLP-1: GLP-1 (10^-8 and 10^-6 M) employed as control in proliferation studies”, the “BRIN-BD11 cell proliferation (Ki-67)” value in the data set on BRIN-BD11 cells is on record as “augmented”.

Take “APPEPVYPGDNAKPEQMAQYAADLRRYINMKTRPRY-NH2 (C-terminus assumed) [[P^3]PP]”: on purified porcine DPP-4 (incubation with DPP-4, 0-8 h), the DPP-4 mediated degradation result is “completely resistant”. On purified porcine DPP-4 (purified DPP-4 (5 mU), incubation 0-8 h), the DPP-4 stability is recorded as >8 h.

In the case of `CC[C@H](C)[C@H](NC(=O)[C@H](Cc1ccc(O)cc1)NC(=O)[C@H](CCCNC(=N)N)NC(=O)[C@H](CCCNC(=N)N)NC(=O)[C@H](CC(C)C)NC(=O)[C@H](CC(=O)O)NC(=O)[C@H](C)NC(=O)[C@H](C)NC(=O)[C@H](Cc1ccc(O)cc1)NC(=O)[C@H](CCC(N)=O)NC(=O)[C@H](C)NC(=O)[C@H](CCSC)NC(=O)[C@H](CCC(N)=O)NC(=O)[C@H](CCC(=O)O)NC(=O)[C@@H]1CCCN1C(=O)[C@@H](NC(=O)[C@H](C)NC(=O)[C@H](CC(N)=O)NC(=O)[C@H](CC(=O)O)NC(=O)CNC(=O)[C@@H]1CCCN1C(=O)[C@H](Cc1ccc(O)cc1)NC(=O)[C@@H](NC(=O)[C@@H]1CCCN1C(=O)[C@H](CCC(=O)O)NC(=O)[C@H](CC(C)C)NC(=O)[C@@H]1CCCN1C(=O)[C@H](C)N)C(C)C)[C@@H](C)O)C(=O)N[C@@H](CC(N)=O)C(=O)N[C@@H](CCSC)C(=O)N[C@@H](CC(C)C)C(=O)N[C@H](C(=O)N[C@@H](CCCNC(=N)N)C(=O)N1CCC[C@H]1C(=O)N[C@@H](CCCNC(=N)N)C(=O)N[C@@H](Cc1ccc(O)cc1)C(N)=O)[C@@H](C)O` [Native PP], at purified porcine DPP-4, the DPP-4 mediated degradation entry is recorded as “generation of the N-terminally cleaved product, PP(3-36)” and the DPP-4 stability was <2 h.
